Measured values as given in patent publication US6521600B1, “Compound, WF002, production thereof and use thereof” (Fujisawa Pharmaceutical Co., Ltd., priority 1998, dated 2003).

Tests used:
Solubility in solvents = type: physicochemical
[1] = tested on: Aspergillus fumigatus FP1305; assay: Antimicrobial activity, serial broth dilution method (MEC); type: cell-based; details: yeast nitrogen base dextrose medium, 37° C., 24 hours, microscopic observation
Experimental: (§1) Test 1 (Antimicrobial Activity) Antimicrobial activity of WF002 was determined by a serial broth dilution method using 96-well microtiter plate in 100 μl of yeast nitrogen base dextrose medium. The inoculum was adjusted to 1×10^5 colony forming units/ml. Candida albicans and Aspergillus fumigatus were cultured at 37° C. for 24 hours and Cryptococcus neoformans was cultured at 37° C. for 48 hours in 5% CO2 incubator. After incubation, the growth inhibition of microorganism in each well was determined by microscopic observation. The results were shown as MEC (minimum effective concentration: μg/ml) value (Table 2).

Candida albicans FP633 = assay: as above; type: cell-based; details: yeast nitrogen base dextrose medium, 37° C., 24 hours, microscopic observation
Experimental: as §1

[2] = tested on: Cryptococcus neoformans YC203; assay: as above; type: cell-based; details: yeast nitrogen base dextrose medium, 37° C., 48 hours, 5% CO2, microscopic observation
Experimental: as §1

Solubility (Solubility in solvents; methanol, ethyl acetate, dimethylsulfoxide): Soluble
Solubility (Solubility in solvents; water, n-hexane): Insoluble
SMILES: CC(=O)OC1CC2(C)C(CCC3(C)C2CCC2=C4C(=O)CC5C(C)COC(O)C45CCC23C)C(C)(C)C1OC1OC(CO)C(O)C(O)C1O (centres unmarked) [WF002]
MEC (minimum effective concentration) [1]: 0.04 µg/mL
MEC (minimum effective concentration) (Candida albicans FP633): 6.25 µg/mL
MEC (minimum effective concentration) [2]: 50 µg/mL
